Target: human APJ receptor (Homo sapiens (Human), UniProt P35414)
Test: Intracellular cAMP accumulation assay (APJ hcAMP, HTRF)
Format: cell-based
Conditions: human APJ, intracellular cAMP accumulation; read-out: Human APJ cAMP EC50 Potency range
Experimental: Intracellular cAMP Accumulation Assay
HEK293 cells stably expressing human APJ receptor were used to assess the activity of compounds. Cultured cells were detached and resuspended in the cAMP Homogeneous Time-Resolved Fluorescence (HTRF) assay buffer (Cisbio cat; #62AM4PEJ). The assay was performed in 384-well assay plates (Perkin-Elmer; cat #6008289) according to assay protocol provided by the manufacturer. Serial dilutions of a compound together with assay buffer containing […] and 2 μM forskolin were added to each well containing 5,000 cells and incubated for 30 minutes at room temperature. Subsequently, cAMP D2 reagent was added in the lysis buffer followed by the EuK antibody (Cisbio; cat #62AM4PEJ) and incubated for 60 min. The fluorescence emission ratio was measured using fluorometer. The intracellular cAMP concentrations (compound-stimulated inhibition of forskolin-mediated cAMP production) were calculated by extrapolation from a standard curve using known cAMP concentrations. The EC50 values were obtained by fitting the data to a sigmoidal concentration-response curve with variable slope.
The EC50 value of each compound is presented at the end of the example description.
The biological activity of the exemplified compounds of this invention determined by the assay described above is shown at the end of each example.

Sequence of human APJ receptor (P35414 whole entry): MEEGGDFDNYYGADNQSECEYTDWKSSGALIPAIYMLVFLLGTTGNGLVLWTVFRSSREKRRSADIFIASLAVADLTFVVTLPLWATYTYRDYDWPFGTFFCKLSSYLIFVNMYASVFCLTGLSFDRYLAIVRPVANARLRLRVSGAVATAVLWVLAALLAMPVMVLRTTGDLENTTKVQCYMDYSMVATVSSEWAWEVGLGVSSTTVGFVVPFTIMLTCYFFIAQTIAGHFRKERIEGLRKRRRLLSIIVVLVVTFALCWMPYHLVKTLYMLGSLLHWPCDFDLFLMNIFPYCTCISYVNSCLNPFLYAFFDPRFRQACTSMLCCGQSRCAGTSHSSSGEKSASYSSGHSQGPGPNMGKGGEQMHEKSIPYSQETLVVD

Row | EC50 | SMILES
1 | 0.01 to 10 nM | CCCCc1nc(=O)c(S(=O)(=O)c2ccc(-c3cc(F)ccc3F)cc2)c(O)n1-c1c(OC)cccc1OC [Example 35, 2-butyl-5-[4-(2,5-difluorophenyl)benzenesulfonyl]-1-(2,6-dimethoxyphenyl)-6-hydroxy-1,4-dihydropyrimidin-4-one]
2 | 0.01 to 10 nM | CCCCc1nc(=O)c(S(=O)(=O)c2ccc(-c3ccc(Cl)c(F)c3)cc2)c(O)n1-c1c(OC)cccc1OC [Example 36, 2-butyl-5-[4-(4-chloro-3-fluorophenyl)benzene-sulfonyl]-1-(2,6-dimethoxyphenyl)-6-hydroxy-1,4-dihydropyrimidin-4-one]
3 | 0.01 to 10 nM | CCCCc1nc(=O)c(S(=O)(=O)c2ccc(-c3cnc(F)c(Cl)c3)cc2)c(O)n1-c1c(OC)cccc1OC [Example 37, 2-butyl-5-[4-(5-chloro-6-fluoropyridin-3-yl)benzenesulfonyl]-1-(2,6-dimethoxyphenyl)-6-hydroxy-1,4-dihydropyrimidin-4-one]
4 | 0.01 to 10 nM | CCCCc1nc(=O)c(S(=O)(=O)c2ccc(-c3ccc(CN(C)C)cc3)cc2)c(O)n1-c1c(OC)cccc1OC [Example 38, 2-butyl-1-(2,6-dimethoxyphenyl)-5-(4-{4-[(dimethyla,o)methyl]phenyl}benzenesulfonyl)-6-hydroxy-1,4-dihydropyrimidin-4-one]
5 | 0.01 to 10 nM | CCCCc1nc(=O)c(S(=O)(=O)c2ccc(-c3ccc(C(=O)NC4CC4)cc3)cc2)c(O)n1-c1c(OC)cccc1OC [Example 39, 4-(4-{[2-butyl-1-(2,6-dimethoxyphenyl)-6-hydroxy-4-oxo-1,4-dihydropyrimidin-5-yl]sulfonyl}phenyl)-N-cyclopropylbenzamide]
6 | 0.01 to 10 nM | CCCCc1nc(=O)c(S(=O)(=O)c2ccc(-c3ccncc3C)cc2)c(O)n1-c1c(OC)cccc1OC [Example 40, 2-butyl-1-(2,6-dimethoxyphenyl)-6-hydroxy-5-[4-(3-methylpyridin-4-yl)benzenesulfonyl]-1,4-dihydropyrimidin-4-one]
7 | 0.01 to 10 nM | CCCCc1nc(=O)c(S(=O)(=O)c2ccc(-c3ccc(C4CC4)nc3)cc2)c(O)n1-c1c(OC)cccc1OC [Example 41, 2-butyl-5-[4-(6-cyclopropylpyridin-3-yl)benzenesulfonyl]-1-(2,6-dimethoxyphenyl)-6-hydroxy-1,4-dihydropyrimidin-4-one]
8 | 0.01 to 10 nM | CCCCc1nc(=O)c(S(=O)(=O)c2ccc(-c3cccc(F)n3)cc2)c(O)n1-c1c(OC)cccc1OC [Example 42, 2-butyl-1-(2,6-dimethoxyphenyl)-5-[4-(6-fluoropyridin-2-yl)benzenesulfonyl]-6-hydroxy-1,4-dihydropyrimidin-4-one]
9 | 0.01 to 10 nM | CCCCc1nc(=O)c(S(=O)(=O)c2ccc(-c3ccnc(OC)c3)cc2)c(O)n1-c1c(OC)cccc1OC [Example 43, 2-butyl-1-(2,6-dimethoxyphenyl)-6-hydroxy-5-[4-(2-methoxypyridin-4-yl)benzenesulfonyl]-1,4-dihydropyrimidin-4-one]
10 | 0.01 to 10 nM | CCCCc1nc(=O)c(S(=O)(=O)c2ccc(-c3ccc(C(N)=O)cc3)cc2)c(O)n1-c1c(OC)cccc1OC [Example 44, 4-(4-{[2-butyl-1-(2,6-dimethoxyphenyl)-6-hydroxy-4-oxo-1,4-dihydropyrimidin-5-yl]sulfonyl}phenyl) benzamide]
11 | 0.01 to 10 nM | CCCCc1nc(=O)c(S(=O)(=O)c2ccc(-c3cccc(OCOC)c3)cc2)c(O)n1-c1c(OC)cccc1OC [Example 45, 2-butyl-1-(2,6-dimethoxyphenyl)-6-hydroxy-5-{4-[3-(methoxymethoxy)phe-nyl]benzenesulfonyl}-1,4-dihydropyrimidin-4-one]
12 | 0.01 to 10 nM | CCCCc1nc(=O)c(S(=O)(=O)c2ccc(-c3ccccc3C#N)cc2)c(O)n1-c1c(OC)cccc1OC [Example 46, 2-(4-{[2-butyl-1-(2,6-dimethoxyphenyl)-6-hydroxy-4-oxo-1,4-dihydropyrimidin-5-yl]sulfonyl}phenyl) benzonitrile]
13 | 0.01 to 10 nM | CCCCc1nc(=O)c(S(=O)(=O)c2ccc(-c3cccc(C#N)c3)cc2)c(O)n1-c1c(OC)cccc1OC [Example 47, 3-(4-{[2-butyl-1-(2,6-dimethoxyphenyl)-6-hydroxy-4-oxo-1,4-dihydropyrimidin-5-yl]sulfonyl}phenyl) benzonitrile]
14 | 0.01 to 10 nM | CCCCc1nc(=O)c(S(=O)(=O)c2ccc(-c3ccc(NC(=O)OC)cc3)cc2)c(O)n1-c1c(OC)cccc1OC [Example 48, methyl N-[4-(4-{[2-butyl-1-(2,6-dimethoxyphenyl)-6-hydroxy-4-oxo-1,4-dihydropyrimidin-5-yl]sulfonyl}phenyl)phe-nyl]carbamate]
15 | 0.01 to 10 nM | CCCCc1nc(=O)c(S(=O)(=O)c2ccc(-c3ccccc3COC)cc2)c(O)n1-c1c(OC)cccc1OC [Example 49, 2-butyl-1-(2,6-dimethoxyphenyl)-6-hydroxy-5-{4-[2-(methoxymethyl)phenyl]benzenesulfonyl}-1,4-dihydropyrimidin-4-one]
16 | 0.01 to 10 nM | CCCCc1nc(=O)c(S(=O)(=O)c2ccc(-c3cncc(F)c3)cc2)c(O)n1-c1c(OC)cccc1OC [Example 50, 2-butyl-1-(2,6-dimethoxyphenyl)-5-[4-(5-fluoropyridin-3-yl)benzenesulfonyl]-6-hydroxy-1,4-dihydropyrimidin-4-one]
17 | 0.01 to 10 nM | CCCCc1nc(=O)c(S(=O)(=O)c2ccc(-c3ccnc(NC(=O)C4CC4)c3)cc2)c(O)n1-c1c(OC)cccc1OC [Example 51, N-[4-(4-{[2-butyl-1-(2,6-dimethoxyphenyl)-6-hydroxy-4-oxo-1,4-dihydropyrimidin-5-yl]sulfonyl}phenyl)pyri-din-2-yl]cyclopropane-carboxamide]
18 | 0.01 to 10 nM | CCCCc1nc(=O)c(S(=O)(=O)c2ccc(-c3cccc4cnccc34)cc2)c(O)n1-c1c(OC)cccc1OC [Example 52, 2-butyl-1-(2,6-dimethoxyphenyl)-6-hydroxy-5-[4-(isoquinolin-5-yl)benzenesulfonyl]-1,4-dihydropyrimidin-4-one]
19 | 0.01 to 10 nM | CCCCc1nc(=O)c(S(=O)(=O)c2ccc(-c3ccc4c(ccn4C)c3)cc2)c(O)n1-c1c(OC)cccc1OC [Example 53, 2-butyl-1-(2,6-dimethoxyphenyl)-6-hydroxy-5-[4-(1-methyl-1H-indol-5-yl)benzenesulfonyl]-1,4-dihydropyrimidin-4-one]
20 | 0.01 to 10 nM | CCCCc1nc(=O)c(S(=O)(=O)c2ccc(-c3ccc4ncccc4c3)cc2)c(O)n1-c1c(OC)cccc1OC [Example 54, 2-butyl-1-(2,6-dimethoxyphenyl)-6-hydroxy-5-[4-(quinolin-6-yl)benzenesulfonyl]-1,4-dihydropyrimidin-4-one]
21 | 0.01 to 10 nM | CCCCc1nc(=O)c(S(=O)(=O)c2ccc(-c3ccc(OC(F)(F)F)cc3)cc2)c(O)n1-c1c(OC)cccc1OC [Example 55, 2-butyl-1-(2,6-dimethoxyphenyl)-6-hydroxy-5-{4-[4-(trifluoromethoxy)phenyl]benzenesulfonyl}-1,4-dihydropyrimidin-4-one]
22 | 0.01 to 10 nM | CCCCc1nc(=O)c(S(=O)(=O)c2ccc(-c3cc(Cl)cc(Cl)c3)cc2)c(O)n1-c1c(OC)cccc1OC [Example 56, 2-butyl-5-[4-(3,5-dichlorophenyl)benzenesulfonyl]-1-(2,6-dimethoxyphenyl)-6-hydroxy-1,4-dihydropyrimidin-4-one]
23 | 0.01 to 10 nM | CCCCc1nc(=O)c(S(=O)(=O)c2ccc(-c3ccccc3F)cc2)c(O)n1-c1c(OC)cccc1OC [Example 57, 2-butyl-1-(2,6-dimethoxyphenyl)-5-[4-(2-fluorophenyl)benzene-sulfonyl]-6-hydroxy-1,4-dihydropyrimidin-4-one]
24 | 0.01 to 10 nM | CCCCc1nc(=O)c(S(=O)(=O)c2ccc(-c3ccc(F)c(F)c3)cc2)c(O)n1-c1c(OC)cccc1OC [Example 58, 2-butyl-5-[4-(3,4-difluorophenyl)benzenesulfonyl]-1-(2,6-dimethoxyphenyl)-6-hydroxy-1,4-dihydropyrimidin-4-one]
25 | 0.01 to 10 nM | CCCCc1nc(=O)c(S(=O)(=O)c2ccc(-c3ccc(C)c(C)c3)cc2)c(O)n1-c1c(OC)cccc1OC [Example 59, 2-butyl-1-(2,6-dimethoxyphenyl)-5-[4-(3,4-dimethylphenyl)benzene-sulfonyl]-6-hydroxy-1,4-dihydropyrimidin-4-one]
26 | 0.01 to 10 nM | CCCCc1nc(=O)c(S(=O)(=O)c2ccc(-c3cccnc3C)cc2)c(O)n1-c1c(OC)cccc1OC [Example 60, 2-butyl-1-(2,6-dimethoxyphenyl)-6-hydroxy-5-[4-(2-methylpyridin-3-yl)benzenesulfonyl]-1,4-dihydropyrimidin-4-one]
27 | 0.01 to 10 nM | CCCCc1nc(=O)c(S(=O)(=O)c2ccc(-c3ccc(Cl)nc3C)cc2)c(O)n1-c1c(OC)cccc1OC [Example 61, 2-butyl-5-[4-(6-chloro-2-methylpyridin-3-yl)benzenesulfonyl]-1-(2,6-dimethoxyphenyl)-6-hydroxy-1,4-dihydropyrimidin-4-one]
28 | 0.01 to 10 nM | CCCCc1nc(=O)c(S(=O)(=O)c2ccc(C)cc2)c(O)n1-c1c(OC)cccc1OC [Example 62, 2-butyl-1-(2,6-dimethoxyphenyl)-6-hydroxy-5-(4-methylbenzenesulfonyl)-1,4-dihydropyrimidin-4-one]
29 | 0.01 to 10 nM | COc1cccc(OC)c1-n1c(C2CCCC2)nc(=O)c(S(=O)(=O)c2ccc(C)cc2)c1O [Example 63, 2-cyclopentyl-1-(2,6-dimethoxyphenyl)-6-hydroxy-5-(4-methylbenzenesulfonyl)-1,4-dihydropyrimidin-4-one]

— US10508104B2, “6-hydroxy-5-(phenyl/heteroarylsulfonyl)pyrimidin-4(1H)-one as APJ agonists” (Bristol-Myers Squibb Company, priority 2016, dated 2019)
